The text below walks through data of patent US20240398783A1, “Compounds and Pharmaceutical Compositions Comprising Inhibitors of Amyloid Peptide Interactions with Glycosaminoglycans, Methods of Treatment and Use Thereof” (Gismo Therapeutics, Inc., priority 2021, published 2024).

Molecules are shown by their SMILES. Structures can show the parent of a compound that is named as a salt. Where two headings read alike, the source gives them in different places.

The target in experiment [1] is Tau binding to purified human brain membranes (Homo sapiens, UniProt P10636). The experiment is described as follows: Inhibition of Tau binding to purified human brain cell membranes (ELISA). How it is done:
(§1) Purified human brain cell membranes were prepared by differential centrifugation as follows. Five grams of frozen human brain postmortem tissue (obtained from University of Kentucky Alzheimer's Disease Center Tissue Bank) was homogenized in 50 ml HEPES-Buffered sucrose (0.32M sucrose, 4 mM HEPES pH7.4, protease inhibitors) with a motor driven glass-teflon homogenizer. After removing nuclear and cell debris by centrifugation of homogenates at 1,000×g for 10 min at 4 degree Celsius, post-nuclear supernatant was centrifuged at 100,000×g for 30 minutes to yield the crude membrane pellet. Crude membrane pellet was re-suspended in 0.32M sucrose, then centrifuged again at 100,000×g for 30 minutes to yield washed membrane pellet. Membrane pellet was resuspended in sterile PBS (pH7.4), quickly frozen, and kept in aliquots at −80 degrees Celsius. This preparation contains human brain cell membranes. Protein concentration was measured with BCA protein assay kit (Pierce Cat. No. 23227). Purified brain membranes were diluted to 0.01 mg/ml in PBS (pH 7.4) and then added to a 96 well polystyrene ELISA plate (NUNC Cat. No. 449824; 100 μl per well). Plates were incubated Over Night (ON) at 4 degrees Celsius. Following the incubation, the plate was washed consecutively, by immersion, with de-ionized water and PBS (pH 7.4). The ELISA plate was then blocked with nonfat milk (2%, 200 μl per well) for 2 hours at Room Temperature (RT). Following blocking, the plate was washed with de-ionized water then PBS (pH 7.4). GBAPs were dissolved and diluted in PBS (pH 6.5, supplemented with 0.1% BSA) at desired concentrations, added to the ELISA plates coated with brain membranes (100 μl per well) and incubated for 2 hours at RT with gentle shaking. Following incubation, the plate was washed with de-ionized water and three times with PBS (pH 6.5) plus Tween. Bound GBAP was detected by a monoclonal antibody specific for that GBAP, followed by incubation with secondary antibody conjugated to horseradish peroxidase (HRP). Antibody was diluted in PBS (pH6.5 supplemented with 1% BSA). Following each incubation with antibody, the plate was washed with de-ionized water and three times with PBS (pH6.5) wash buffer containing 0.1% Tween. The peroxidase substrate chromogen, TMB (Dako Cat. No. S1599) was added (100 μl per well) to the ELISA plate and incubated at room temperature. After 5 minutes ELISA Stop Solution (hydrochloric acid 1N, sulfuric acid 3N) was added (100 μl per well) to stop the peroxidase catalyzed colorimetric reaction. The Optical Density of the samples was measured at 450 nm using an ELISA plate reader (BioTek Synergy H1). Following color development, the % inhibition compared to control was determined. IC-50s were calculated using GraphPad Prism software.
The assay was performed as described in Example 49, with the following modifications.
Following to coating the plates with purified human brain cell membranes, plates were washed as described. The compounds were dissolved in DMSO at 10 mM final concentration and further diluted prior to assay. DMSO concentration in the screening well was up to 2%. Individual compounds were co-incubated with Tau on plates coated with purified human brain membranes. Tau purchased from rPeptide (Cat. No. T1001) was dissolved in DMSO (Sigma Cat. No. D2650), quickly frozen and kept in aliquots at −80 degrees Celsius. Tau dissolved in PBS (pH 6.5, supplemented with BSA, 0.1%) was added to the ELISA plate (100 μl per well) and incubated for 2 hours at RT with gentle shaking. Following the incubation, the plate was washed with de-ionized water and three times with PBS (pH 6.5) plus Tween. Bound Tau was detected by anti-Tau Monoclonal Antibody D-8 (Santa Cruz Cat. No. sc-166060), followed by secondary anti-IgG antibody conjugated to HRP (R&D System, Cat. No. HAF007). Following to color development with TMB, as described in Example 49, the Optical Density of the samples was measured at 450 nm using an ELISA plate reader. […]

Experiment [2] addresses T1, Amyloid-beta(1-42) oligomer binding to purified human brain membranes (Homo sapiens, UniProt P05067).
T1 construct: Beta-amyloid (1-42) was purchased from rPeptide (Cat. No. A1163); purchased rPeptide A1163
The experiment can be described thus: Inhibition of Amyloid-beta(1-42) oligomer binding to purified human brain cell membranes (ELISA). To be noted: Abeta(1-42) oligomers, read-out: Abeta42/Membrane Activity (IC-50). How it is done: as §1
(§2) The assay was performed as described in Example 49, with the following modifications. Following to coating the plates with purified human brain cell membranes, plates were washed as described. The compounds were dissolved in DMSO at 10 mM final concentration and further diluted prior to assay. DMSO concentration in the screening well was up to 2%. Individual compounds were co-incubated with Beta-amyloid peptides on plates coated with purified human brain membranes. Beta-amyloid (1-42) oligomers were prepared as described in Example 2. Beta-amyloid (1-40) from rPeptide (Cat No. A1153) was dissolved in DMSO, quickly frozen and kept in aliquots at −80 degrees Celsius. Beta-amyloid (1-42) oligomers or Beta-amyloid (1-40) dissolved in PBS (pH 6.5, supplemented with BSA, 0.1%) were added to the ELISA plate (100 μl per well) and incubated for 2 hours at RT with gentle shaking. Following the incubation, the plate was washed with de-ionized water and three times with PBS (pH 6.5) plus Tween. […]

The target of experiment [3] is T2, Amyloid-beta(1-40) binding to purified human brain membranes (Homo sapiens, UniProt P05067).
T2 construct: Beta-amyloid (1-40) from rPeptide (Cat No. A1153) was dissolved in DMSO; purchased rPeptide A1153
T2 sequence (P05067 672-711): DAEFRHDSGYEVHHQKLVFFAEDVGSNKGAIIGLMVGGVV
The experiment is described as follows: Inhibition of Amyloid-beta(1-40) binding to purified human brain cell membranes (ELISA). The note with it: Abeta(1-40), read-out: Abeta40/Membrane Activity (IC-50). How it is done: as §1, §2

Where [4] appears, read: Tau, purified human brain membranes, read-out: Tau/Membrane Activity (IC-50).

Sequence of Tau binding to purified human brain membranes (P10636 with tags, fused parts or gaps): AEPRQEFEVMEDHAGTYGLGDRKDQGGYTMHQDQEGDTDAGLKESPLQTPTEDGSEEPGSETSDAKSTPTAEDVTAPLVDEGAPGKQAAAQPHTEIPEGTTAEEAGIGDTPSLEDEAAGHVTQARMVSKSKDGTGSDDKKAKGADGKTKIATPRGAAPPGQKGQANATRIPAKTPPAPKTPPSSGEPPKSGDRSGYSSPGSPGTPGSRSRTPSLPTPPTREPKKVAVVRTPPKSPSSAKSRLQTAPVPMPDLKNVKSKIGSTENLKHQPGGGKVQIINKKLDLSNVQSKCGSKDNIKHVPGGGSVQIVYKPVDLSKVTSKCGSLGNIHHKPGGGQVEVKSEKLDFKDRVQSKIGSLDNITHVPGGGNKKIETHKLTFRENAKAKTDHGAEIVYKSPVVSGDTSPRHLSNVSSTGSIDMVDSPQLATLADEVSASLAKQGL
T1 sequence (P05067 672-713): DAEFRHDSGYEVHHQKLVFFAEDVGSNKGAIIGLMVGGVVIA

As to `Cc1cc(-n2ccnc2)ccc1/C=N/Nc1ccnc2cc(Cl)ccc12` [Compound 1, (E)-4-((E)-(4-(1H-imidazol-1-yl)-2-methylbenzylidene)hydrazono)-7-chloro-1,4-dihydroquinoline], the IC50 in experiment [1] (setting [4]) amounted to 0.49 µM; in experiment [2], 2.97 µM.
As for `Clc1ccc2c(N/N=C/c3ccc(-n4cccn4)cc3)ccnc2c1` [Compound 3, (E)-4-((E)-(4-(1H-pyrazol-1-yl)benzylidene)hydrazono)-7-chloro-1,4-dihydroquinoline], the values for the IC50 in experiment [1] and in experiment [2] were 8.82 µM and 11.5 µM, respectively.
As for `Clc1ccc2c(N/N=C/c3ccc(-n4ccnc4)nc3)ccnc2c1` [Compound 14, (E)-4-(2-((6-(1H-imidazol-1-yl)pyridin-3-yl)methylene)hydrazineyl)-7-chloroquinoline hydrochloride], the IC50 in experiment [1] was found to be 1.86 µM; in experiment [3], 18.4 µM; in experiment [2] it was 6.03 µM.
In the case of `C/C(=N\Nc1ncnc2cc(Cl)ccc12)c1ccc(-n2cnc(C)c2C)nc1` [Compound 16, 7-chloro-4-(2-(1-(6-(4,5-dimethyl-1H-imidazol-1-yl)pyridin-3-yl)ethylidene)hydrazineyl)quinazoline phosphate], the figures for the IC50 in experiment [1], in experiment [3] and in experiment [2] were 9.61 µM, 2.88 µM and 3.29 µM, respectively.
Regarding `C/C(=N\Nc1nncc2cc(Cl)ccc12)c1ccc(-n2cc(C)nc2C)nc1` [Compound 24, (E)-6-chloro-1-(2-(1-(6-(2,4-dimethyl-1H-imidazol-1-yl)pyridin-3-yl)ethylidene)hydrazineyl)phthalazine], the IC50 in experiment [1] (setting [4]) turned out to be 2.56 µM; in experiment [3], 24.5 µM; in experiment [2], 6.67 µM.
As for `Clc1ccc2c(N/N=C/c3ccc(-n4ccnc4)cc3)ccnc2c1` [Compound 38, 4-(2-(4-(1H-imidazol-1-yl)benzylidene)hydrazineyl)-7-chloroquinoline dihydrochloride], the IC50 in experiment [1] worked out at 4.86 µM; in experiment [3], 0.36 µM; in experiment [2], 4.62 µM.
In the case of `Cc1ncn(-c2ncc(Nc3ncnc4cc(Cl)ccc34)cc2O)c1C` [Compound 40, 5-((7-chloroquinazolin-4-yl)amino)-2-(4,5-dimethyl-1H-imidazol-1-yl)pyridin-3-ol phosphoric acid salt], the IC50 in experiment [1] came to 65.1 µM; in experiment [2], 4.36 µM.
